Literature values in patent publication US20220152053A1, “METHODS AND COMPOSITIONS FOR TREATING VARIOUS DISORDERS” (Amylyx Pharmaceuticals, Inc., priority 2019, published 2022).
Like-named read-outs stand apart in the source and are kept apart here. One block for each molecule: values may come before it.

Experiments:
subjects = settings: prior human experience
CD-1 mice = settings: oral, 50, 250, and 1000 mg/kg/day, 2 years
Sprague-Dawley rats = settings: oral, 50, 250, and 1000 mg/kg/day, 2 years, males and females
liver enzyme levels = settings: in vivo
cancer subjects = settings: intravenous, 250-300 mg/kg/day for 14 days, repeated at 4-week intervals
[1] = system: subjects with urea cycle disorders; settings: for Other (rare) adverse events, frequency: gastrointestinal, hematologic, cardiovascular, renal, psychiatric, skin, miscellaneous
ALS subjects = settings: daily dosages between 9 and 21 grams, 20 weeks
[2] = system: G93A SOD1 mouse model of ALS; settings: in vivo
rat = settings: intrarectal instillation, 78 weeks
CYP 1A2 = molecular target: T1, CYP 1A2 (Homo sapiens, UniProt P05177); settings: at 20 times the intended clinical concentration (Cmax)
T1 sequence (P05177 1-516): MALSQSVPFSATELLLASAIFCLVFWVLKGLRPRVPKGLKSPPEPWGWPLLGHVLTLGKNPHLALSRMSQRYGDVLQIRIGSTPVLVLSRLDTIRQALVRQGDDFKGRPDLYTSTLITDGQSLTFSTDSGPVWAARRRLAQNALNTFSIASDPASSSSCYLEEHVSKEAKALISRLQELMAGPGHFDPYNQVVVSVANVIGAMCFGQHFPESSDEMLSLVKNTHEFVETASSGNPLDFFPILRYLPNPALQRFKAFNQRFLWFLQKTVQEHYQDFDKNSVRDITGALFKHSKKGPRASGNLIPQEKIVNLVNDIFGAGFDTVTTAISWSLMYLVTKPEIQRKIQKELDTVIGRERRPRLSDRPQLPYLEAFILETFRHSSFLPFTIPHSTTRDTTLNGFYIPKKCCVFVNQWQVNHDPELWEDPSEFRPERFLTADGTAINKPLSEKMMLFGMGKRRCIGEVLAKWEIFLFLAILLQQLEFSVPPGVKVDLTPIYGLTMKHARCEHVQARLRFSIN

CYP 2D6 = CYP 2D6 (Homo sapiens, UniProt P10635); settings: at 20 times the intended clinical concentration (Cmax)
CYP 2D6, sequence (P10635 whole entry): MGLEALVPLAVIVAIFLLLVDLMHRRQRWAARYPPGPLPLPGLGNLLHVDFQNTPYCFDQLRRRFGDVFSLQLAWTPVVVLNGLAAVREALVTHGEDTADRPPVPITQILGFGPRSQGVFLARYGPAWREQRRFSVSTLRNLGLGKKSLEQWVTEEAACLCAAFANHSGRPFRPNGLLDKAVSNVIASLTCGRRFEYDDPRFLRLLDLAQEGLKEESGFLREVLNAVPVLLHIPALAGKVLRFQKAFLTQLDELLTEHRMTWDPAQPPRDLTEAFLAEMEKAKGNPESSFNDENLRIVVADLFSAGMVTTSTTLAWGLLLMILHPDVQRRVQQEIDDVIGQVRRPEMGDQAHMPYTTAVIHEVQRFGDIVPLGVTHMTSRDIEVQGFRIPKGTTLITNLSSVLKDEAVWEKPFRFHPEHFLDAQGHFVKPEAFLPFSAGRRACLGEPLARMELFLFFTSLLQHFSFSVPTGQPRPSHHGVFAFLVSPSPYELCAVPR

Molecule: C[C@H](CCC(=O)NCCS(=O)(=O)O)[C@H]1CC[C@H]2[C@@H]3[C@@H](O)C[C@@H]4C[C@H](O)CC[C@]4(C)[C@H]3CC[C@]12C [TURSO, taurursodiol]
frequency of adverse reactions (abdominal discomfort, abdominal pain, diarrhea, nausea, pruritus, rash) (subjects): ≥ 1% | frequency of adverse reactions (abdominal discomfort, abdominal pain, diarrhea, nausea, pruritus, rash) (subjects; listed as TUDCA): > 1%

tumorigenicity (CD-1 mice): not tumorigenic
Molecule: C[C@H](CCC(=O)O)[C@H]1CC[C@H]2[C@@H]3[C@@H](O)C[C@@H]4C[C@H](O)CC[C@]4(C)[C@H]3CC[C@]12C [Ursodeoxycholic acid]
tumorigenicity (Sprague-Dawley rats): statistically significant dose-related increased incidences of pheochromocytomas of adrenal medulla | association with liver damage (liver enzyme levels): has not been associated with liver damage

Molecule: O=C(O)Cc1ccccc1 [phenylacetate, phenylacetic acid]
Neurotoxicity (cancer subjects): Neurotoxicity was reported

Molecule: O=C(O)CCCc1ccccc1 [phenylbutyrate, sodium phenylbutyrate]
Decreased appetite ([1]; all subjects): 4% | Other (rare) adverse events, frequency [1]: ≤ 2% | Other (rare) adverse events, frequency ([1]; listed as PB): < 2% | Body odor ([1]; human, in vivo): 3% | bad taste or taste aversion ([1]; human, in vivo): 3% | amenorrhea/menstrual dysfunction (irregular menstrual cycles) ([1]; menstruating subjects): 23% | safety and tolerability (ALS subjects): generally safe and tolerable | survival [2]: increase survival

tumor production, bile acid alone (rat): did not produce any tumors
Molecule: C[C@H](CCC(=O)NCCS(=O)(=O)O)[C@H]1CC[C@H]2[C@@H]3CC[C@@H]4C[C@H](O)CC[C@]4(C)[C@H]3C[C@H](O)[C@]12C [tauro-deoxycholic acid]
effect when co-administered with a carcinogenic agent (rat): tumor-promoting effect

Molecule: Phenylacetylacetate
inhibition of CYP 1A2 (CYP 1A2): inhibitory | inhibition of CYP 2D6 (CYP 2D6): inhibitory
